Read-outs that look alike come from different tables or passages of the source.
Test system: iCell cardiomyocytes (human iPSC-derived cardiomyocytes)
Assay: Intracellular Ca2+ flux / beating parameters in iCell cardiomyocytes (FLIPR tetra), 90 min or 24 h
Format: cell-based
Conditions: for activity at 0.01 µM / activity at 0.1 µM / activity at 1 µM / activity at 10 µM / activity at 100 µM: Homo sapiens, Cardiomyocyte, 0.00 µM = 100.00; for activity at 0.1 µM: 0.10 µM
Outline: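 Gelatin-plated iCell cardiomyocytes (5,000/well) were dye-loaded for 2 h at 37 °C, then exposed for 90 min or 24 h to PCBs/metabolites (5× plates at 0.05–500 µM; 0.5% DMSO final) in triplicate. Ca2+ flux was read for 100 s at 8 Hz and 37 °C. Peak height, frequency, spacing CV and decay/rise ratio were vehicle-normalized and fitted with a four-parameter logistic model, with POD set at 1 SD of vehicle.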

[1] = 1.5 h, read-out: cm.amp.avg.90min
[2] = 1.5 h, read-out: cm.amp.cv.90min
[3] = 1.5 h, read-out: cm.decay.rise.90min
[4] = 1.5 h, read-out: cm.spacing.cv.90min
[5] = 24 h, read-out: cm.amp.avg.24hrs
[6] = 24 h, read-out: cm.amp.cv.24hrs
[7] = 24 h, read-out: cm.decay.rise.24hrs
[8] = 24 h, read-out: cm.spacing.cv.24hrs

**Q.** For Oc1cc(Cl)cc(-c2cccc(Cl)c2)c1 [5-OH PCB 11], which activity at 0.01 µM [1] is on record?
**A.** 101%

**Q.** What about the activity at 0.01 µM [2] of the same compound?
**A.** 105%

**Q.** What about the activity at 0.01 µM (1.5 h, read-out: cm.bpm.90min) of the same compound?
**A.** 97.8%

**Q.** And the activity at 0.01 µM [3]?
**A.** 102%

**Q.** What about the activity at 0.01 µM [4] of the same compound?
**A.** 101%

**Q.** And the activity at 0.1 µM [1]?
**A.** 102%

**Q.** What about the activity at 0.1 µM [2] of the same compound?
**A.** 103%

**Q.** And the activity at 0.1 µM (1.5 h, read-out: cm.bpm.90min)?
**A.** 100%

**Q.** And the activity at 0.1 µM [3]?
**A.** 98.1%

**Q.** What about the activity at 0.1 µM [4] of the same compound?
**A.** 107%

**Q.** And the activity at 1 µM [1]?
**A.** 104%

**Q.** And the activity at 1 µM [2]?
**A.** 101%

**Q.** What about the activity at 1 µM (1.5 h, read-out: cm.bpm.90min) of the same compound?
**A.** 102%

**Q.** And the activity at 1 µM [3]?
**A.** 98.3%

**Q.** And the activity at 1 µM [4]?
**A.** 99.1%

**Q.** And the activity at 10 µM [1]?
**A.** 94.2%

**Q.** What about the activity at 10 µM [2] of the same compound?
**A.** 105%

**Q.** And the activity at 10 µM (1.5 h, read-out: cm.bpm.90min)?
**A.** 137%

**Q.** What about the activity at 10 µM [3] of the same compound?
**A.** 92%

**Q.** And the activity at 10 µM [4]?
**A.** 106%

**Q.** And the activity at 100 µM [1]?
**A.** 0%

**Q.** What about the activity at 100 µM [2] of the same compound?
**A.** 0%

**Q.** What about the activity at 100 µM (1.5 h, read-out: cm.bpm.90min) of the same compound?
**A.** 0%

**Q.** And the activity at 100 µM [3]?
**A.** 0%

**Q.** What about the activity at 100 µM [4] of the same compound?
**A.** 0%

**Q.** What about the activity at 0.01 µM [5] of the same compound?
**A.** 128%

**Q.** What about the activity at 0.01 µM [6] of the same compound?
**A.** 95.9%

**Q.** And the activity at 0.01 µM (24 h, read-out: cm.bpm.24hrs)?
**A.** 104%

**Q.** And the activity at 0.01 µM [7]?
**A.** 94.3%

**Q.** What about the activity at 0.01 µM [8] of the same compound?
**A.** 112%

**Q.** What about the activity at 0.1 µM [5] of the same compound?
**A.** 123%

**Q.** And the activity at 0.1 µM [6]?
**A.** 81.7%

**Q.** What about the activity at 0.1 µM (24 h, read-out: cm.bpm.24hrs) of the same compound?
**A.** 97.4%

**Q.** What about the activity at 0.1 µM [7] of the same compound?
**A.** 98.8%

**Q.** What about the activity at 0.1 µM [8] of the same compound?
**A.** 113%

**Q.** What about the activity at 1 µM [5] of the same compound?
**A.** 151%

**Q.** And the activity at 1 µM [6]?
**A.** 71%

**Q.** And the activity at 1 µM (24 h, read-out: cm.bpm.24hrs)?
**A.** 91.7%

**Q.** What about the activity at 1 µM [7] of the same compound?
**A.** 100%

**Q.** And the activity at 1 µM [8]?
**A.** 89.5%

**Q.** What about the activity at 10 µM [5] of the same compound?
**A.** 126%

**Q.** What about the activity at 10 µM [6] of the same compound?
**A.** 83.9%

**Q.** What about the activity at 10 µM (24 h, read-out: cm.bpm.24hrs) of the same compound?
**A.** 114%

**Q.** What about the activity at 10 µM [7] of the same compound?
**A.** 104%

**Q.** What about the activity at 10 µM [8] of the same compound?
**A.** 101%

**Q.** What about the activity at 100 µM [5] of the same compound?
**A.** 0%

**Q.** What about the activity at 100 µM [6] of the same compound?
**A.** 0%

**Q.** What about the activity at 100 µM (24 h, read-out: cm.bpm.24hrs) of the same compound?
**A.** 0%

**Q.** And the activity at 100 µM [7]?
**A.** 0%

**Q.** And the activity at 100 µM [8]?
**A.** 0%

**Q.** Which “effect on Ca2+ flux” value (iPSC-CM, 100 μM, because of loss of cell viability) does the source give for Oc1cc(Cl)cc(-c2cccc(Cl)c2)c1 [5-OH-PCB 11] here?
**A.** complete block of Ca^2+ flux

— article PMC7377239, “Cardiovascular Effects of Polychlorinated Biphenyls and Their Major Metabolites” (Environmental Health Perspectives, 2020)
